How the values were obtained:
[1] = biological target: T1, DGKζ (hDGKzeta(1-928)-N-His) (Homo sapiens, UniProt Q13574); test: In vitro DGK inhibition assay, DGKzeta ADP Glo (in house); type: biochemical; settings: 2 nM DGKζ, 50 μM ATP, 125 uM DLG in liposomes, 1 hour reaction
T1 construct: hDGKzeta(1-928)-N-His; His (N); made in house; host or cells: Sf21 insect cells (baculovirus)
Summary of the method: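 ADP-Glo luminescence measured ADP formed over 1 h by Sf21-expressed full-length human enzymes: DGKα at 4 nM with 25 µM ATP, DGKζ at 2 nM with 50 µM ATP, both on 125 µM DLG in PS/PC liposomes. Dose–response used 11 threefold dilutions at 2% final DMSO.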

primary human T-cells = test: IL2 secretion measurements (24 h, CD3-stimulated T-cells, PBS counter screen); type: cell-based; settings: for Emax IL2 (% activation): CD3 condition, normalised to DMSO (neutral) and 20 μM reference compound A1 = 100%; for EC50: Homo sapiens, T-cell, CD3-stimulated primary human T-cells, IL2 secretion, fitted sigmoidal curve, read-out: Tcell IL2 CD3 EC50
Summary of the method: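 IL-2 secretion was measured by ProQuantum or ELISA after 24 h culture of expanded human T-cells with compound, on CD3-antibody-coated plates or PBS counter-screen plates. Dosing used 5–6 points from a 20 or 10 μM final top at 3.333-fold steps in 0.2% DMSO. EC50/Emax were scaled between DMSO and 20 μM reference A1.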

T1 sequence (Q13574 whole entry): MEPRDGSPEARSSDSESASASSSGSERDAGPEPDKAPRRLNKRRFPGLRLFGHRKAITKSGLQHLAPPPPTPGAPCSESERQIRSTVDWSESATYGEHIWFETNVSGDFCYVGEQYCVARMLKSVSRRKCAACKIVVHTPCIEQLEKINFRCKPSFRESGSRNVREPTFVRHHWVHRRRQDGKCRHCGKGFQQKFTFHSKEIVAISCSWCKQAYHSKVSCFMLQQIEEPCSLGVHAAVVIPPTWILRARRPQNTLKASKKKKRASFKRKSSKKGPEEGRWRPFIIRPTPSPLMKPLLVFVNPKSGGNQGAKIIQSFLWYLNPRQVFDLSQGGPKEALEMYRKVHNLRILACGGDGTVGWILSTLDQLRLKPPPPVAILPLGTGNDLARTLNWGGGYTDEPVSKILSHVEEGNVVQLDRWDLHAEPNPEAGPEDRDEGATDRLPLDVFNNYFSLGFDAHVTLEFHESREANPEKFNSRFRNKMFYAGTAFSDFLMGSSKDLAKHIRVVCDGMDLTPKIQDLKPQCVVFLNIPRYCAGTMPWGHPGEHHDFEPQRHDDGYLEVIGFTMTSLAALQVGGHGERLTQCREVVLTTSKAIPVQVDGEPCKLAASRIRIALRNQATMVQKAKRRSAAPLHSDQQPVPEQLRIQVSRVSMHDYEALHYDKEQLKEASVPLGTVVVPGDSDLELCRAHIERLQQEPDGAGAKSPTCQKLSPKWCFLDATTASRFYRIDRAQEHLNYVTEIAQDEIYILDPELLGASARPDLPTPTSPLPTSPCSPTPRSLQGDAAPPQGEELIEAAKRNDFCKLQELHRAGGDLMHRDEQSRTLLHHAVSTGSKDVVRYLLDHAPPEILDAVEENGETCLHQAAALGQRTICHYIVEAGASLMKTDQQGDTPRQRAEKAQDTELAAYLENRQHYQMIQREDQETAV

SMILES	IC50 [1] [µM]	Emax IL2 (% activation) (primary human T-cells)	EC50 (primary human T-cells) [µM]
CC(C)(C#N)c1nnc(-c2ccc3c(c2)N(Cc2ccc(-n4ccc(C(F)(F)F)n4)cc2)C(=O)[C@@H](N)CS3(=O)=O)o1 [Example 121, 2-[5-[(3R)-3-amino-1,1,4-trioxo-5-[[4-[3-(trifluoromethyl)pyrazol-1-yl]phenyl]methyl]-2,3-dihydro-1λ^6,5-benzothiazepin-7-yl]-1,3,4-oxadiazol-2-yl]-2-methyl-propanenitrile]	0.767	207	0.732
CC(C)(C#N)c1nnc(-c2ccc3c(c2)N(Cc2ccc(-c4ccc(OC(F)(F)F)cn4)cc2)C(=O)[C@@H](N)CS3(=O)=O)o1 [Example 124]	0.801	154	0.278
CC1(c2nnc(-c3ccc4c(c3)N(Cc3ccc(-c5noc(C(F)(F)F)n5)cc3)C(=O)[C@@H](N)CS4(=O)=O)o2)COC1 [Example 149, (3R)-3-amino-7-[5-(3-methyloxetan-3-yl)-1,3,4-oxadiazol-2-yl]-1,1-dioxo-5-[[4-[5-(trifluoromethyl)-1,2,4-oxadiazol-3-yl]phenyl]methyl]-2,3-dihydro-1λ^6,5-benzothiazepin-4-one]	4.25	268	0.567
CC1(c2nnc(-c3ccc4c(c3)N(Cc3ccc(-c5ccc(C(F)(F)F)cn5)cc3)C(=O)[C@@H](N)CS4(=O)=O)o2)COC1 [Example 150, (3R)-3-amino-7-[5-(3-methyloxetan-3-yl)-1,3,4-oxadiazol-2-yl]-1,1-dioxo-5-[[4-[5-(trifluoromethyl)-2-pyridyl]phenyl]methyl]-2,3-dihydro-1λ^6,5-benzothiazepin-4-one]	9.91	35	> 10
C[C@@](N)(c1nnc(-c2ccc3c(c2)N(Cc2ccc(-n4ccc(C(F)(F)F)n4)cc2)C(=O)[C@@H](N)CS3(=O)=O)o1)C(F)(F)F [Example 157, (3R)-3-amino-7-[5-[(1R)-1-amino-2,2,2-trifluoro-1-methyl-ethyl]-1,3,4-oxadiazol-2-yl]-1,1-dioxo-5-[[4-[3-(trifluoromethyl)pyrazol-1-yl]phenyl]methyl]-2,3-dihydro-1λ^6,5-benzothiazepin-4-one]	2.28	106	1.78
COC(=O)N1CC2CC(c3nnc(-c4ccc5c(c4)N(Cc4ccc(-c6ccc(C(F)(F)F)cn6)cc4)C(=O)[C@@H](N)CS5(=O)=O)o3)(C2)C1 [Example 159, methyl 1-[5-[(3R)-3-amino-1,1,4-trioxo-5-[[4-[5-(trifluoromethyl)-2-pyridyl]phenyl]methyl]-2,3-dihydro-1λ^6,5-benzothiazepin-7-yl]-1,3,4-oxadiazol-2-yl]-3-azabicyclo[3.1.1]heptane-3-carboxylate]	1.35	188	0.912

Further lines, with some results ahead:

IC50 [1] [µM]	SMILES	Emax IL2 (% activation) (primary human T-cells)	EC50 (primary human T-cells) [µM]
1.92	N[C@H]1CS(=O)(=O)c2ccc(-c3nnc(N4CCC(F)(F)CC4)o3)cc2N(Cc2ccc(-c3nc(C(F)(F)F)no3)cc2)C1=O [Example 161, (3R)-3-amino-7-[5-(4,4-difluoro-1-piperidyl)-1,3,4-oxadiazol-2-yl]-1,1-dioxo-5-[[4-[3-(trifluoromethyl)-1,2,4-oxadiazol-5-yl]phenyl]methyl]-2,3-dihydro-1λ^6,5-benzothiazepin-4-one]	150	3.21
10.6	N#CC1CN(c2nnc(-c3ccc4c(c3)N(Cc3ccc(-c5noc(C(F)(F)F)n5)cc3)C(=O)[C@@H](N)CS4(=O)=O)o2)CCO1 (stereo partly drawn) [Example 163, 4-[5-[(3R)-3-amino-1,1,4-trioxo-5-[[4-[5-(trifluoromethyl)-1,2,4-oxadiazol-3-yl]phenyl]methyl]-2,3-dihydro-1λ^6,5-benzothiazepin-7-yl]-1,3,4-oxadiazol-2-yl]morpholine-2-carbonitrile]	152	2.39
2.03	COCC1CN(c2nnc(-c3ccc4c(c3)N(Cc3ccc(-c5noc(C(F)(F)F)n5)cc3)C(=O)[C@@H](N)CS4(=O)=O)o2)CCO1 (stereo partly drawn) [Example 164, (3R)-3-amino-7-[5-[2-(methoxymethyl)morpholin-4-yl]-1,3,4-oxadiazol-2-yl]-1,1-dioxo-5-[[4-[5-(trifluoromethyl)-1,2,4-oxadiazol-3-yl]phenyl]methyl]-2,3-dihydro-1λ^6,5-benzothiazepin-4-one]	156	3.3
1.72	CC(C)(c1nnc(-c2ccc3c(c2)N(Cc2ccc(-c4noc(C(F)(F)F)n4)cc2)C(=O)[C@@H](N)CS3(=O)=O)o1)C(F)(F)F [Example 166]	385	0.158
0.924	CC(C)(c1nnc(-c2ccc3c(c2)N(Cc2ccc(-c4noc(C5CC5)n4)cc2)C(=O)[C@@H](N)CS3(=O)=O)o1)C(F)(F)F [Example 167, (3R)-3-amino-5-[[4-(5-cyclopropyl-1,2,4-oxadiazol-3-yl)phenyl]methyl]-1,1-dioxo-7-[5-(2,2,2-trifluoro-1,1-dimethyl-ethyl)-1,3,4-oxadiazol-2-yl]-2,3-dihydro-1λ^6,5-benzothiazepin-4-one]	279	0.635
1.77	CCC(O)(c1nnc(-c2ccc3c(c2)N(Cc2ccc(-c4noc(C5CC5)n4)cc2)C(=O)[C@@H](N)CS3(=O)=O)o1)C(F)(F)F (stereo partly drawn) [Example 169]	128	3.17
0.2	CCN1CC(c2nnc(-c3ccc4c(c3)N(Cc3ccc(-c5noc(C(C)(C)C)n5)cc3)C(=O)[C@@H](N)CS4(=O)=O)o2)CC(F)(F)C1 (stereo partly drawn) [Example 181, (3R)-3-amino-5-[[4-(5-tert-butyl-1,2,4-oxadiazol-3-yl)phenyl]methyl]-7-[5-(1-ethyl-5,5-difluoro-3-piperidyl)-1,3,4-oxadiazol-2-yl]-1,1-dioxo-2,3-dihydro-1λ^6,5-benzothiazepin-4-one]	66	6.89
2	COCCN1CC(c2nnc(-c3ccc4c(c3)N(Cc3ccc(-c5noc(C(F)(F)F)n5)cc3)C(=O)[C@@H](N)CS4(=O)=O)o2)CC(F)(F)C1 (stereo partly drawn) [Example 182, (3R)-3-amino-7-[5-[5,5-difluoro-1-(2-methoxyethyl)-3-piperidyl]-1,3,4-oxadiazol-2-yl]-1,1-dioxo-5-[[4-[5-(trifluoromethyl)-1,2,4-oxadiazol-3-yl]phenyl]methyl]-2,3-dihydro-1λ^6,5-benzothiazepin-4-one]	149	3.26
0.97	COCCN1CC(c2nnc(-c3ccc4c(c3)N(Cc3ccc(-c5ccc(OC)cc5)cc3)C(=O)[C@@H](N)CS4(=O)=O)o2)CC(F)(F)C1 (stereo partly drawn) [Example 183, (3R)-3-amino-7-[5-[5,5-difluoro-1-(2-methoxyethyl)-3-piperidyl]-1,3,4-oxadiazol-2-yl]-5-[[4-(4-methoxyphenyl)phenyl]methyl]-1,1-dioxo-2,3-dihydro-1λ^6,5-benzothiazepin-4-one]	69	6.44
